Measured values from article PMC3448795 (Biochemistry, 2012).
Where two headings read alike, the source gives them in different places. Peptide text beside a SMILES is read from it.

Columns and labels:
human S100B [1] = molecular target: T1, human S100B (Homo sapiens, UniProt P04271); test: NMR 1H-15N HSQC titration with LineShapeKin line shape analysis; assay type: binding; conditions: for Kon (Table 3) / Kon (Table 4) / Kon (Table 2): low salt; for Kon (Table 2): Kd from ITC
T1 sequence (P04271 2-92 limits assumed): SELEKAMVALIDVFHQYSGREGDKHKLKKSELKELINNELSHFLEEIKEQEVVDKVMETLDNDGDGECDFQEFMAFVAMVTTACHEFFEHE

human S100B [2] = molecular target: T1, human S100B; test: Isothermal titration calorimetry; assay type: binding
[3] = calculated from Kd and Koff of Table 3
[4] = calculated from Kd and Koff of Table 4
[5] = calculated from Kd and Koff, 35°C

CC(=O)N[C@@H](CCC(=O)O)C(=O)N[C@H](C(=O)N[C@@H](CC(C)C)C(=O)N[C@H](C(=O)N[C@@H](CCCNC(=N)N)C(=O)N1CCC[C@H]1C(=O)N[C@@H](CCCCN)C(=O)N1CCC[C@H]1C(=O)N[C@@H](CC(C)C)C(=O)N[C@@H](CC(C)C)C(=O)N[C@@H](CC(C)C)C(=O)N[C@@H](CCCCN)C(=O)N[C@@H](CC(C)C)C(=O)N[C@@H](CC(C)C)C(=O)N[C@@H](CCCCN)C(=O)N[C@@H](CO)C(=O)N[C@H](C(=O)NCC(=O)N[C@@H](C)C(=O)N[C@@H](Cc1ccc(O)cc1)C(N)=O)C(C)C)C(C)C)[C@@H](C)O [HDM2] (Ac-ETLVRPKPLLLKLLKSVGAY-NH2)
Kon (Table 3) (human S100B [1]; [3]): 160 ± 70 1×10^7 M^-1 s^-1
Kon (Table 4) (human S100B [1]; [4]): 100 ± 40 1×10^7 M^-1 s^-1
Kon (Table 2) (human S100B [1]; [5]): 30 ± 11 1×10^7 M^-1 s^-1
kon (human S100B [1]; read-out: Kon (text, Table 2 analysis)): 2.8e+08 M⁻¹ s⁻¹
Kd (human S100B [2]): 0.5 ± 0.2 µM

CC[C@H](C)[C@H](NC(=O)[C@H](CCCCN)NC(=O)[C@H](CC(C)C)NC(=O)[C@H](CC(C)C)NC(=O)[C@@H]1CCCN1C(=O)[C@H](CC(C)C)NC(=O)[C@H](CCCCN)NC(=O)[C@@H]1CCCN1C(=O)[C@H](CCCNC(=N)N)NC(=O)[C@@H](NC(=O)[C@H](CCC(N)=O)NC(=O)[C@H](CC(N)=O)NC(C)=O)C(C)C)C(=O)N[C@@H](CC(C)C)C(=O)N[C@@H](Cc1c[nH]cn1)C(=O)N[C@@H](C)C(=O)N[C@@H](C)C(=O)NCC(=O)N[C@@H](C)C(=O)N[C@@H](CCC(N)=O)C(=O)N[C@@H](Cc1ccc(O)cc1)C(N)=O [HDM4] (Ac-NQVRPKLPLLKILHAAGAQY-NH2)
Kon (Table 3) (human S100B [1]; [3]): 3 ± 1 1×10^7 M^-1 s^-1
Kd (human S100B [2]): 0.07 ± 0.03 µM

CC(=O)N[C@@H](CCCCN)C(=O)N[C@@H](CCCNC(=N)N)C(=O)N[C@@H](CC(C)C)C(=O)N[C@@H](CCCNC(=N)N)C(=O)N[C@@H](CCCNC(=N)N)C(=O)N[C@@H](CO)C(=O)N[C@@H](C)C(=O)N[C@@H](Cc1c[nH]cn1)C(=O)N[C@@H](C)C(=O)N[C@@H](CCCNC(=N)N)C(=O)N[C@@H](CCCCN)C(=O)N[C@@H](CCC(=O)O)C(=O)N[C@H](C(=O)N[C@@H](CCC(=O)O)C(=O)N[C@@H](Cc1ccccc1)C(=O)N[C@@H](CC(C)C)C(=O)N[C@@H](CCCNC(=N)N)C(=O)N[C@@H](CC(C)C)C(=O)N[C@@H](CCCCN)C(=O)N[C@@H](CCCNC(=N)N)C(=O)N[C@H](C(=O)N[C@@H](CCCNC(=N)N)C(=O)N[C@@H](CC(C)C)C(=O)NCC(=O)N[C@@H](CC(C)C)C(=O)N[C@@H](CCC(=O)O)C(=O)N[C@@H](Cc1ccc(O)cc1)C(N)=O)[C@@H](C)O)[C@@H](C)O [NDR] (Ac-KRLRRSAHARKETEFLRLKRTRLGLEY-NH2)
Kon, first peptide binding event (human S100B [1]; bounds from simulated Koff and ITC Kd1): 13-63 1×10^7 M^-1 s^-1
Kon, second peptide binding event (human S100B [1]; bounds from simulated Koff and ITC Kd2): 1-10 1×10^7 M^-1 s^-1

CSCC[C@H](NC(=O)[C@H](CC(C)C)NC(=O)[C@H](CCCCN)NC(=O)[C@H](CCCCN)NC(=O)[C@H](Cc1c[nH]cn1)NC(=O)[C@H](CCCNC(=N)N)NC(=O)[C@H](CO)NC(=O)[C@@H](NC(=O)[C@H](CO)NC(=O)[C@H](CCC(N)=O)NC(=O)CNC(=O)[C@H](CCCCN)NC(=O)[C@H](CCCCN)NC(=O)[C@H](CO)NC(=O)[C@H](CCCCN)NC(=O)[C@H](CC(C)C)NC(=O)[C@H](Cc1c[nH]cn1)NC(=O)[C@H](CO)NC(=O)[C@H](Cc1ccc(O)cc1)NC(C)=O)[C@@H](C)O)C(=O)N[C@@H](Cc1ccccc1)C(=O)N[C@@H](CCCCN)C(=O)N[C@H](C(=O)N[C@@H](CCC(=O)O)C(N)=O)[C@@H](C)O [p53]
Kd (human S100B [1]; Kd, App (Table 4), high salt, LineShapeKin, NMR only, 35°C, from 2D matrix): 10 ± 2 µM
Kon (Table 3), high salt (human S100B [1]; calculated from Kd and Koff of Table 3, high salt): 7.5 ± 1.5 1×10^7 M^-1 s^-1
Kon (Table 3) (human S100B [1]; [3]): 80 ± 30 1×10^7 M^-1 s^-1
Kon (Table 4), high salt (human S100B [1]; calculated from Kd and Koff of Table 4, high salt): 10 ± 2 1×10^7 M^-1 s^-1
Kon (Table 4) (human S100B [1]; [4]): 100 ± 40 1×10^7 M^-1 s^-1
Kon (Table 2), high salt (human S100B [1]; calculated from Kd and Koff, 35°C, high salt): 3 ± 1 1×10^7 M^-1 s^-1
Kon (Table 2) (human S100B [1]; [5]): 40 ± 16 1×10^7 M^-1 s^-1
koff (human S100B [1]; read-out: Koff (Table 3), high salt, LineShapeKin, NMR only, 35°C, high salt): 750 ± 150 s⁻¹
koff (human S100B [1]; read-out: Koff (Table 4), high salt, LineShapeKin, NMR only, 35°C, high salt, from 2D matrix): 1000 ± 200 s⁻¹
kon (human S100B [1]; read-out: Kon (text, Table 3 analysis)): 8e+08 M⁻¹ s⁻¹
Kd (human S100B [2]): 2 ± 1 µM
ΔCp, exp, high salt (human S100B [2]; slope of ΔHcal versus temperature, ITC, buffer plus 120 mM NaCl): -1.2 ± 0.3 kJ·mol^-1 K^-1
